For 14 compounds, TGI and GI50 results are on record in PubChem BioAssay (NCI).

Test systems include LOX IMVI melanoma; MOLT-4 leukemia; OVCAR-8 ovarian; NCI-H23 lung; KM12 colon; SN12C renal; NCI-H522 lung; SK-OV-3 ovarian; SK-MEL-2 melanoma; SNB-75 CNS.
What all share (assay): NCI anticancer screen, dose series, 48 h

Values joined by “and” are separate entries in the source; they are usually repeats but may differ in a detail not shown here. Equal entries are not always repeated.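 Compound exposure: 48 hours, 5 concentrations, 96-well plates. GI50 is the concentration that inhibits growth by half. TGI is the concentration that stops growth completely.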 Where only a bound is given, the exact number is not on record here.

On to `CCCCN(CC)CC(C(C)=O)c1c(O)c2ccccc2oc1=O` (stereo not given), for which the TGI in the test on LOX IMVI melanoma, in the test on MOLT-4 leukemia, with OVCAR-8 ovarian, in the test with NCI-H23 lung, in the test on KM12 colon and with SN12C renal was greater than 100 µM in each case. For the same compound, the TGI in the test on NCI-H522 lung, in the test on SK-OV-3 ovarian, with SK-MEL-2 melanoma and in the test with SNB-75 CNS was greater than 100 µM throughout.
`CSC(=S)N/N=C/c1nccc2ccccc12`: the TGI with LOX IMVI melanoma stood at 13.1 µM; in the test on MOLT-4 leukemia it was 3.65 µM; in the test on OVCAR-8 ovarian it was 4.96 µM; in the test with NCI-H23 lung it was 5.03 µM; in the test with KM12 colon, 15.6 µM; in the test on SN12C renal, 12.7 µM. Also, the TGI stood at 1.63 µM in the test on NCI-H522 lung, 29.8 µM in the test on SK-OV-3 ovarian, 5.89 µM in the test on SK-MEL-2 melanoma and 14 µM in the test with SNB-75 CNS.
In the case of `Nc1ccc(/C=C/C(=O)NCc2cc3cc(-c4ccc(C(=O)N5CCC(F)(F)CC5)cc4)cc(-c4ccc(F)cc4)c3o2)cn1`, the GI50 was greater than 77.5 µM in the test on LOX IMVI melanoma; 3.46 µM with MOLT-4 leukemia; 0.0404 µM with OVCAR-8 ovarian; greater than 100 µM in the test on NCI-H23 lung; 1.21 µM in the test with KM12 colon; 0.0589 µM in the test with SN12C renal. For the same compound, the GI50 is 0.773 µM in the test with NCI-H522 lung, greater than 100 µM in the test on SK-OV-3 ovarian, greater than 100 µM in the test with SK-MEL-2 melanoma and greater than 100 µM with SNB-75 CNS. The TGI in the test on LOX IMVI melanoma, in the test on MOLT-4 leukemia, with OVCAR-8 ovarian, in the test on NCI-H23 lung, in the test with KM12 colon and in the test with SN12C renal was greater than 100 µM each time. The TGI in the test on NCI-H522 lung, in the test on SK-OV-3 ovarian, in the test with SK-MEL-2 melanoma and in the test with SNB-75 CNS was greater than 100 µM in each case.
Turning to `N#Cc1ccc(NC(=O)C(CC(=O)OCc2ccccc2)NC(=O)OCc2ccccc2)cc1` (stereo not given), the GI50 in the test on LOX IMVI melanoma, with MOLT-4 leukemia, in the test on OVCAR-8 ovarian, in the test on NCI-H23 lung, in the test with KM12 colon and with SN12C renal was greater than 100 µM throughout. Moreover, the GI50 with NCI-H522 lung, in the test on SK-OV-3 ovarian and with SNB-75 CNS was greater than 100 µM in each case. In addition, the TGI with LOX IMVI melanoma, with MOLT-4 leukemia, in the test with OVCAR-8 ovarian, in the test with NCI-H23 lung, with KM12 colon and in the test with SN12C renal was greater than 100 µM throughout. For the same compound, the TGI in the test with NCI-H522 lung, with SK-OV-3 ovarian, in the test on SK-MEL-2 melanoma and in the test on SNB-75 CNS was greater than 100 µM each time.
In the case of `C=CC(OCC)(OCC)OCC`, the TGI in the test on LOX IMVI melanoma, with MOLT-4 leukemia, with OVCAR-8 ovarian, in the test with NCI-H23 lung, in the test with KM12 colon and in the test on SN12C renal was greater than 100 µM in each case. The TGI in the test with NCI-H522 lung, with SK-OV-3 ovarian, in the test with SK-MEL-2 melanoma and in the test on SNB-75 CNS was greater than 100 µM each time.
In the case of `O=S(=O)(NCCCNc1nccc(-c2c(-c3ccc(F)cc3)nc3sccn23)n1)c1ccc2ccccc2c1`, the GI50 with LOX IMVI melanoma is 4.35 µM; with MOLT-4 leukemia, 4.52 µM; in the test with OVCAR-8 ovarian, 4.63 µM; in the test on NCI-H23 lung, 15.1 µM; with KM12 colon, 2.86 µM; in the test on SN12C renal it was 4.69 µM. Moreover, the GI50 was 5.66 µM in the test with NCI-H522 lung, greater than 100 µM in the test with SK-OV-3 ovarian, 6.63 µM in the test on SK-MEL-2 melanoma and 5.22 µM in the test with SNB-75 CNS. Also, the TGI was greater than 100 µM in the test on LOX IMVI melanoma; greater than 100 µM in the test with MOLT-4 leukemia; greater than 100 µM with OVCAR-8 ovarian; greater than 100 µM with NCI-H23 lung; 9.96 µM with KM12 colon; greater than 100 µM in the test on SN12C renal. The TGI in the test on NCI-H522 lung, in the test with SK-OV-3 ovarian, with SK-MEL-2 melanoma and in the test on SNB-75 CNS was greater than 100 µM each time.
Turning to `CCC1=CC2CN(C1)Cc1c([nH]c3ccccc13)[C@@](C(=O)OC)(c1cc3c(cc1OC)N(C)[C@H]1[C@@](O)(C(=O)OC)[C@H](OC(C)=O)[C@]4(CC)C=CCN5CC[C@]31[C@@H]54)C2` (stereo not given in full), the GI50 with LOX IMVI melanoma is less than 0.005 µM; in the test with MOLT-4 leukemia, 0.0105 µM; in the test on OVCAR-8 ovarian, 0.0201 µM and 0.0306 µM; with NCI-H23 lung, 0.0176 µM and 0.0134 µM; in the test on SN12C renal it was 0.0118 µM and 0.0186 µM; in the test on NCI-H522 lung, less than 0.005 µM. For the same compound, the TGI with LOX IMVI melanoma was 50 µM and > 100 µM; in the test with MOLT-4 leukemia, 11.1 µM and 13.9 µM; in the test with OVCAR-8 ovarian it was 50 µM and > 100 µM; with NCI-H23 lung, 50 µM and > 100 µM; in the test on KM12 colon, 0.372 µM; with SN12C renal it was 50 µM and > 100 µM. In addition, the TGI with NCI-H522 lung is 1.3 µM; with SK-OV-3 ovarian it was 11.8 µM; in the test on SK-MEL-2 melanoma, 14.9 µM and > 100 µM; in the test with SNB-75 CNS it was 17.9 µM.
For the compound `COC(=O)C(/C(=N\O)C(=O)Nc1cccc(Cl)c1C)c1cnc2ccccc2n1` (stereo not given), the TGI with LOX IMVI melanoma, in the test with MOLT-4 leukemia, with OVCAR-8 ovarian, with NCI-H23 lung, in the test on KM12 colon and with SN12C renal was greater than 100 µM in each case. Moreover, the TGI in the test on NCI-H522 lung, with SK-OV-3 ovarian, with SK-MEL-2 melanoma and with SNB-75 CNS was greater than 100 µM in each case.
For `O=c1c(F)cn(Cc2ccccc2CCl)c(=O)n1Cc1ccccc1CCl`, the GI50 is 1.23 µM with LOX IMVI melanoma; 1.77 µM in the test on MOLT-4 leukemia; 0.977 µM with OVCAR-8 ovarian; 2.42 µM with NCI-H23 lung; 1.74 µM with KM12 colon; 2.75 µM in the test with SN12C renal. In addition, the GI50 in the test with NCI-H522 lung is 1.45 µM; in the test on SK-OV-3 ovarian, 5.88 µM; in the test on SK-MEL-2 melanoma, 1.54 µM; in the test with SNB-75 CNS, 1.97 µM. The TGI with LOX IMVI melanoma was determined as 2.78 µM; with MOLT-4 leukemia, 4.69 µM; with OVCAR-8 ovarian it was 2.99 µM; with NCI-H23 lung, 7.05 µM; with KM12 colon it was 3.68 µM; with SN12C renal, 10.4 µM. Further, the TGI with NCI-H522 lung was 3.01 µM; with SK-OV-3 ovarian, 15.1 µM; with SK-MEL-2 melanoma it was 3.05 µM; in the test with SNB-75 CNS, 6.36 µM.
With `C/C(=N/NC(=O)C[N+](C)(C)C)C(CN(C)C)C(=O)Nc1ccccc1` (stereo not given), the TGI in the test with LOX IMVI melanoma, in the test with MOLT-4 leukemia, in the test with OVCAR-8 ovarian, with NCI-H23 lung, in the test with KM12 colon and in the test on SN12C renal was greater than 100 µM in each case. In addition, the TGI with NCI-H522 lung, in the test on SK-OV-3 ovarian, with SK-MEL-2 melanoma and with SNB-75 CNS was greater than 100 µM throughout.
`CNC(=O)c1nn(C)c2c1C(C)(C)Cc1cnc(Nc3ccc(N4CCN(C)CC4)cc3)nc1-2`: the GI50 in the test on LOX IMVI melanoma was 0.606 µM; with MOLT-4 leukemia, 0.546 µM; in the test on OVCAR-8 ovarian, 3.17 µM; with NCI-H23 lung, 0.966 µM; in the test with KM12 colon, 0.347 µM; in the test on SN12C renal it was 0.705 µM. Moreover, the GI50 was 0.327 µM with NCI-H522 lung, 0.209 µM in the test with SK-OV-3 ovarian, 0.432 µM in the test on SK-MEL-2 melanoma and 0.304 µM in the test with SNB-75 CNS. The TGI in the test on LOX IMVI melanoma was greater than 10 µM; with MOLT-4 leukemia it was greater than 5.29 µM; with OVCAR-8 ovarian, greater than 10 µM; in the test on NCI-H23 lung, greater than 7.26 µM; in the test on KM12 colon it was greater than 10 µM; with SN12C renal, greater than 10 µM. Moreover, the TGI in the test on NCI-H522 lung is greater than 5.54 µM; with SK-OV-3 ovarian it was 1.54 µM; with SK-MEL-2 melanoma, greater than 8.25 µM; in the test with SNB-75 CNS, 2.29 µM.
`c1c[nH]c(CN2CCOCC2)n1`: the TGI in the test on LOX IMVI melanoma, in the test on MOLT-4 leukemia, with OVCAR-8 ovarian, with NCI-H23 lung, with KM12 colon and with SN12C renal was greater than 100 µM each time. For the same compound, the TGI in the test on NCI-H522 lung, with SK-OV-3 ovarian, in the test with SK-MEL-2 melanoma and in the test on SNB-75 CNS was greater than 100 µM throughout.
For `O=C(O)[C@H](c1ccccc1)[C@@H](C(=O)O)c1ccccc1`, the TGI in the test on LOX IMVI melanoma, with MOLT-4 leukemia, with OVCAR-8 ovarian, in the test on NCI-H23 lung, in the test on KM12 colon and with SN12C renal was greater than 100 µM throughout. Also, the TGI in the test with NCI-H522 lung, in the test on SK-OV-3 ovarian, in the test on SK-MEL-2 melanoma and with SNB-75 CNS was greater than 100 µM throughout.
With `CCOC(=O)/C(C#N)=C\C=C(/Cl)c1ccc(Cl)cc1`, the GI50 with LOX IMVI melanoma is 4.82 µM; in the test on MOLT-4 leukemia, 8.75 µM; in the test with OVCAR-8 ovarian, 19.4 µM; in the test on NCI-H23 lung it was 12.2 µM; in the test on KM12 colon it was 20 µM; in the test with SN12C renal it was 21 µM. The GI50 with NCI-H522 lung was 14 µM; in the test on SK-OV-3 ovarian, greater than 46.8 µM; with SK-MEL-2 melanoma, 27.7 µM; in the test on SNB-75 CNS, 20.5 µM. Besides, the TGI in the test with LOX IMVI melanoma is 18.6 µM; in the test with MOLT-4 leukemia, greater than 100 µM; in the test on OVCAR-8 ovarian, 42.1 µM; in the test with NCI-H23 lung, 26.9 µM; in the test on KM12 colon, 45.8 µM; in the test on SN12C renal it was 54.7 µM. The TGI in the test on NCI-H522 lung is 39.9 µM; in the test on SK-OV-3 ovarian, greater than 85.4 µM; in the test with SK-MEL-2 melanoma, greater than 91.6 µM; with SNB-75 CNS it was 39.9 µM.
